This is an account of results in US20250376497A1, “ARTIFICIAL PROTEIN AND USES THEREOF” (priority 2022, published 2025).

Several values for one entry are separate records, joined by “and”; a condition that tells them apart may be missing. Identical values can stand only once. Entries after “also recorded” stand apart in the source; their conditions may differ. Bridge positions count the residues as written; N and C are the ends. Ends that are not written are not given here.

The target in series [1] is T1, OR1 (Homo sapiens, UniProt O43613).
T1 sequence (O43613 1-425): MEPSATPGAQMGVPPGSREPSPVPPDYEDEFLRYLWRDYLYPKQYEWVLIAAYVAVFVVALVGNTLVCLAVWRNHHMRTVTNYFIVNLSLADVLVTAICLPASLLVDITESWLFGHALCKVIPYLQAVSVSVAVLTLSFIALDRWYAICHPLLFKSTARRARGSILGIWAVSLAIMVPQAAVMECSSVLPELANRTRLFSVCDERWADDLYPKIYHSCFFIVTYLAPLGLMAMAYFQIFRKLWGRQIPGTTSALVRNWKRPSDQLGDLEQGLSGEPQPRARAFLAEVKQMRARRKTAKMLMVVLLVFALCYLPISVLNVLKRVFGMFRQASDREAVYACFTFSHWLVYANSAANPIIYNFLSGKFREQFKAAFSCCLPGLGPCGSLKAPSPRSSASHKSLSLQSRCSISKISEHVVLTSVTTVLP
Set-up: host or cells: HEK-293T. Conditions: Lang et al., 2004; cited from earlier work.

Series [2] has as its target T2, OR2 (Homo sapiens, UniProt O43614).
T2 sequence (O43614 1-444): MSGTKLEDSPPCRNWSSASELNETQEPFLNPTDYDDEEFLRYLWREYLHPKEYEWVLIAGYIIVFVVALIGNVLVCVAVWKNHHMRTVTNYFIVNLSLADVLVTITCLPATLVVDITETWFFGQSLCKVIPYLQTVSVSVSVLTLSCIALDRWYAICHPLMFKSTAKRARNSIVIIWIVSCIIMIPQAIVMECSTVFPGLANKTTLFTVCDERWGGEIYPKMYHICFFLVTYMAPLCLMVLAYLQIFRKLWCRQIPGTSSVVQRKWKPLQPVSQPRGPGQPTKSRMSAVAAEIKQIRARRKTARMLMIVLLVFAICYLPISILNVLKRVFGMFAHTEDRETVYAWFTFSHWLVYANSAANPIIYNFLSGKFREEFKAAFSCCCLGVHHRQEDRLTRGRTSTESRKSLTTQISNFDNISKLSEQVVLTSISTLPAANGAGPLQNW
Set-up: host or cells: HEK-293T. The settings on record: Lang et al., 2004; cited from earlier work.

The test system of series [3] is OX-KO mice. The experiment in a line: Wakefulness and sleep (EEG/EMG) after subcutaneous injection in OX-KO mice. The series is classed as in vivo, mouse. The settings on record: SC single injection at ZT0, 160 μM in 1 mL saline, vs vehicle; for time spent in REM sleep: light and dark period. The method, then: Wakefulness, non-REM sleep (NREM) and REM sleep are expressed as a percentage of the recording time. V: vehicle (saline). OX-D: OX-DRAGON. TAT: TAT peptide. ZT: Zeitgeber Time (i.e., time since lights were switched on). Each peptide was injected subcutaneously at the concentration of […] in 1 mL of vehicle at ZT0. *: P<0.05, Wilcoxon test with exact significance (Monte Carlo method) vs. vehicle with correction for false-discovery rate.
(§1) A biocompatible acrylic resin protection for was applied to the animal's head to protect the electrode and cannula connectors. After 1-2 weeks of post-operative recovery, the animals were connected via rotating electrical and fluid connectors respectively to thin electrical cables and to a catheter, itself connected to a precision pump for ICV infusion. The rotating connectors, cables and catheter were supported by a balanced arm to allow the animals full freedom of movement during the recordings, which were made with light: dark cycle of 12:12 hours. Wakefulness, non-REM sleep, and REM sleep were assessed based on EEG and EMG tracings with a technique previously published in detail (Bastianini et al., 2011).
Experiments were performed as in step 3 above, except for the absence of the ICV cannula implant.

In series [4] the test system is OX-KO mice. Briefly: Cataplexy-like episodes after subcutaneous injection in OX-KO mice. Conditions: SC single injection at ZT0, 160 μM in 1 mL saline; for total duration of cataplexy-like episodes during the dark period: vs vehicle. The series is classed as in vivo, mouse. The text has this: D-CLS: total duration of cataplectic-like episodes during the dark period. V: vehicle (saline). OX-D: OX-DRAGON. TAT: TAT peptide. […] […] The dots indicate values in individual mice.
Such episodes, identified as direct transitions from wakefulness to REM sleep (Scammell et al., 2009), during the dark period are 100% specific for cataplexy in mouse models of NT1 (Fujiki et al., 2009). Correspondence between such events on polysomnographic tracings and abrupt behavioural transitions to a state of immobility was confirmed based on synchronized video tracings in a subset of mice (n=4) during treatment with vehicle and with OX-DRAGON.

Series [5] concerns OX-KO mice. Briefly: Wakefulness and sleep (EEG/EMG) after intracerebroventricular infusion in OX-KO mice. Type of series: in vivo, mouse. Conditions: ICV 160 μM at 5 μL/h, ZT0-6, vs vehicle (artificial cerebrospinal fluid). The procedure:
Wakefulness, non-REM sleep (NREM) and REM sleep are expressed as a percentage of the recording time. V: vehicle (artificial cerebrospinal fluid). OX-D: OX-DRAGON. TAT: TAT peptide. ZT: Zeitgeber time (i.e., time since lights were switched on). Black bars: intracerebroventricular infusion (5 μL/h from ZT0 to ZT6, with vehicle or peptides at 160 μM). * and †: P<0.05, Wilcoxon test with exact significance (Monte Carlo method) vs. vehicle (with correction for false-discovery rate) or vs. OX-DRAGON, respectively.
as §1

Series [6] relates to control Neuro-2a cells that do not express such receptors (wild-type, WT). The experiment in a line: Intracellular Ca2+ response in control wild-type Neuro-2a cells without OR1/OR2. Type of series: cell-based, mouse. Conditions: Neuro-2a cells without OR1 and OR2. The procedure:
(§2) Selective expression of the OR1- or OR2-coding genes in the corresponding cell lines and the absence of expression of OR1 and OR2 in WT cells were confirmed by real-time PCR from RNA extracted from the individual DNAse-treated and back-transcribed cells (FIG. 3A). Responses in terms of intracellular [Ca^2+] were assessed in triplicate using Fluo-4 Direct Calcium Assay (Invitrogen) and a Tekan Spark microplate reader, normalizing the results obtained to the maximal responses.

The nature of series [7]: Solubility of the peptide. Type of series: physicochemical. The method, then: Two batches of OX-DRAGON were synthesized by an external commercial entity (Genscript, (www.genscript.com), with purity ≥98.0% and net peptide content ≥68.0% (FIG. 2). The peptide is highly soluble […] in water, DPBS and DMSO.
Series [8] concerns the target T1, OR1. The experiment in a line: Concentration-response reporter assay kit (Cayman n. 600240/600250) on HEK-293T cells, OR1. Type of series: cell-based. Set-up: host or cells: HEK-293T.
Series [9] has as its target T2, OR2. The experiment in a line: Intracellular Ca2+ response (Fluo-4 Direct Calcium Assay) in Neuro-2a cells expressing human OR2. Type of series: cell-based. Details: expressed in transfected cells. Conditions: OX-DRAGON 8.5 μM vs OXA 14.8 μM; triplicate; normalized to maximal responses.
Excerpt: (§3) Panel A: L, ladder DNA. Panel B: Data are reported as mean values and standard errors of the mean on triplicate measurements. The dots indicate the individual measures. […] The arrows indicate the time of the microinjection.
as §2

The target in series [10] is T1, OR1. The experiment in a line: Intracellular Ca2+ response (Fluo-4 Direct Calcium Assay) in Neuro-2a cells expressing human OR1. Conditions: OX-DRAGON 8.5 μM vs OXA 14.8 μM; triplicate; normalized to maximal responses. Type of series: cell-based. Details: expressed in transfected cells.
Excerpt: as §3, §2

Series [11] deals with T2, OR2. The experiment in a line: cell-based.
For another series, the system named is WT Neuro-2a cells. Briefly: Immunofluorescence (anti-OXA 16-33 amide) internalization in WT Neuro-2a cells. The series is classed as cell-based, mouse. Conditions: 74 μM, 1 hour, confocal microscopy. From the text:
The panels show immunofluorescence imaging (rabbit anti-OXA 16-33 amide primary antibody, 1:200, Phoenix peptides #H-003-36) in Neuro-2a cells without expression of OR1 and OR2. […] The presence of diffuse TRITC fluorescence at the cytoplasmic level was confirmed in confocal microscopy (panel A). […] Calibration bars: 50 μm.
Because crossing the BBB requires the ability to cross endothelial cell membranes, these experiments support the ability of OX-DRAGON to cross the BBB and reach brain tissue after systemic administration.

Turning to “PDCCRQKTCSCRLYELLHGAGNHAAGILTL [4-33 truncated sequence of OXA]”, the “EC50 on OR1 relative to the native OXA protein” value with OR1 [1] is given as “approximately 1/7”. Moreover, the “EC50 on OR2 relative to the native OXA protein” value with OR2 [2] is “approximately 1/7”.
Take “YGRKKRRQRRR [TAT, cell penetrating TAT peptide of type-1 human immunodeficiency virus (HIV), reference compound]”: in the series with OX-KO mice [3], the time spent awake result was “did not result in significant effects”, the “time spent in non-REM sleep” value was “did not result in significant effects” and the “time spent in REM sleep” value is “did not result in significant effects”. Moreover, in the series with OX-KO mice [4], the “total duration of cataplexy-like episodes during the dark period” value was “not replicated”. Also, in the series on OX-KO mice [5], the REM sleep time result is recorded as “significant reduction in REM sleep time during the dark period”, the non-REM sleep time result was “did not evoke significant effects” and the wakefulness time entry is listed as “did not evoke significant effects”.
Regarding “YGRKKRRQRRRPDCCRQKTCSCRLYELLHGAGNHAAGILTL-NH2 (disulfide 14-20, 15-22) [OX-DRAGON]”, the “intracellular [Ca2+] response of WT cells” value in [6] is “absence of significant effects”. For the same substance, the concentration in solution in [7] (in DMSO) (solubility) was 10000 µg/mL. Moreover, the solubility in [7] (in DPBS) is 10000 µg/mL. The concentration in solution in series [7] (in water) (solubility) was 10000 µg/mL. Further, in the series with OX-KO mice [3], the time spent awake entry is “without exerting significant effects”, the “time spent in non-REM sleep” value was “without exerting significant effects” and the “time spent in REM sleep” value is listed as “significantly decrease”. In the series on OX-KO mice [4], the “duration of individual cataplexy-like episodes” value is given as “no significant changes” and the “total duration of cataplexy-like episodes during the dark period” value is given as “significantly decrease”. For the same substance, in the series on OX-KO mice [4] (P=0.034 one-tailed Wilcoxon), the “number of cataplexy-like episodes” value was “reduction in the number of cataplexy-like episodes”. Further, the EC50 at OR1 [8] (HEK-293T cells, reporter assay, Hill equation fit) worked out at 67.7 nM. Further, the “OR1/OR2 EC50 ratio” value on OR1 [8] (receptor selectivity, EC50 OR1 / EC50 OR2) was 6.47 and 6.5. The “intracellular [Ca2+] response of OR2-expressing cells” value on OR2 [9] is “close to the maximal ones evoked by OXA”. In addition, the “intracellular [Ca2+] response of OR1-expressing cells” value at OR1 [10] is listed as “close to the maximal ones evoked by OXA”. Moreover, in the series with OX-KO mice [5], the REM sleep time result is given as “marked reduction in REM sleep time”, the non-REM sleep time result is “decreased non-REM sleep time” and the wakefulness time entry is “increased wakefulness time”. The EC50 at OR2 [11] came out at 10.5 nM. Also, in the series on WT Neuro-2a cells, the “internalization into cells (intracellular/cytoplasmic fluorescence signal)” value is on record as “cytoplasmic signal of diffused fluorescence; also recorded: presence of TRITC fluorescence signal at the intracellular level”.

As a reminder, the solubility is the dissolved amount per volume that the medium holds. A high value points to much dissolved substance. As a reminder, the EC50 is the midpoint of the concentration-response curve.
